Columns and labels:
[1] = system: rumen contents (lactic acid accumulation); assay: Inhibition of lactic acid accumulation, second batch culture fermentation of rumen contents with glucose; type: cell-based, bovine (rumen fistulated); settings: 6 h, 39° C.; for Lactic Acid Accumulation (μ mol/ml): Table 8, 0 μg/ml: 40.47; for Lactic Acid Accumulation: Table 6, 0 μg/ml: 36.65; for activity at 1.25 µg/mL / activity at 5 µg/mL / activity at 20 µg/mL / activity at 0.31 µg/mL: Bos taurus, read-out: Accumulation of Lactic Acid - % of Control, Table 4
Protocol: Inhibition of lactic acid accumulation is determined using a second batch culture fermentation system. Rumen contents from a rumen fistulated bovine are mixed with an equal amount of buffer which contains a 150 mM concentration of glucose. Following 6 hours of incubation at 39° C., lactic acid produced in the fermentation is analyzed by a specific enzymatic assay. The concentration of lactic acid in the fermentation broth is quantified by the increase in absorbance of light at […] when nicotinamide adenine dinucleotide is reduced by lactic acid with the aid of lactate dehydrogenase. […]
(§1) The procedure of Example 2 was followed to compare laidlomycin (L.), sodium L. (Na L.), L.-propionate (L.C3), L. butyrate (L.C4), L. isobutyrate (L. isoC4), L. pentanoate (L.C5) and L. hexanoate (L.C6).
(§2) The procedure of Example 2 was followed to compare the activities of L. heptanoate (L. C7), L. octanoate (L. C8), L. decanoate (L. C10) and L. dodecanoate (L. C12) in increasing propionic acid production and inhibiting lactic acid production.
(§3) The procedure of Example 2 was followed to compare the activities of laidlomycin (L.) acetate (L. C2), L. pentanoate (L. C5), L. stearate (L. C18), L. cyclobutylcarboxylate, L. cyclopentylcarboxylate, L. cyclohexylcarboxylate and L. cyclopropylcarboxylate.

[2] = system: rumen microorganisms (mixed microbial population of rumen contents); assay: Enhancement of intraruminal propionic acid production, batch culture fermentation of rumen contents; type: cell-based, bovine (rumen-fistulated); settings: 9 h, 39° C.
Protocol: Enhancement of intraruminal propionic acid production is determined using a batch culture fermentation system. Rumen contents from a rumen-fistulated bovine are mixed with an equal amount of buffer which contains mineral, energy and nitrogen sources required for continued growth and metabolism of the mixed microbial population. Aliquots of this inoculum then are transferred to incubation vessels containing appropriate amounts of sodium laidlomycin (Na L.) (see Example 1A), and L. butyrate (L.C4) (prepared according to the procedure of Example 1A). After 9 hours of incubation at 39° C., concentrations of individual volatile fatty acids in each incubation vessel are determined by gas-liquid chromatography. The net production of each individual volatile fatty acid (acetic [AA], propionic [PA] and butyric [BA]) is calculated as the difference between the concentration after incubation and the concentration before incubation. The molar percentage of propionic acid produced is calculated from the following equation: [formula]
The comparative activities of sodium laidlomycin (Na L.) and the laidlomycin butyrate upon propionic acid and lactic acid production are set forth in Tables 1 and 2 where the concentration is in micrograms per ml (μg/ml).
as §1, §2, §3

[3] = Table 7, 1.25 μg/ml, 0 μg/ml: 36.1
[4] = Table 7, 2.5 μg/ml, 0 μg/ml: 36.1
[5] = Table 7, 5 μg/ml, 0 μg/ml: 36.1
[6] = Table 7, 10 μg/ml, 0 μg/ml: 36.1
[7] = Table 7, 20 μg/ml, 0 μg/ml: 36.1
[8] = Table 7, .313 μg/ml, 0 μg/ml: 36.1
[9] = Table 7, .625 μg/ml, 0 μg/ml: 36.1
[10] = Table 5, 1.25 μg/ml, 0 μg/ml: 35.5
[11] = Table 5, 2.5 μg/ml, 0 μg/ml: 35.5
[12] = Table 5, 5 μg/ml, 0 μg/ml: 35.5
[13] = Table 5, 10 μg/ml, 0 μg/ml: 35.5
[14] = Table 5, 20 μg/ml, 0 μg/ml: 35.5
[15] = Table 5, .31 μg/ml, 0 μg/ml: 35.5
[16] = Table 5, .63 μg/ml, 0 μg/ml: 35.5
[17] = Table 3, 1.25 μg/ml, 0 μg/ml: 28.5
[18] = Table 3, 5 μg/ml, 0 μg/ml: 28.5
[19] = Table 3, 20 μg/ml, 0 μg/ml: 28.5
[20] = Table 3, .31 μg/ml, 0 μg/ml: 28.5

Row | SMILES | Lactic Acid Accumulation (μ mol/ml) ([1]; 1.25 μg/ml) | Lactic Acid Accumulation (μ mol/ml) ([1]; 2.5 μg/ml) | Lactic Acid Accumulation (μ mol/ml) ([1]; 5 μg/ml) | Lactic Acid Accumulation (μ mol/ml) ([1]; 10 μg/ml) | Lactic Acid Accumulation (μ mol/ml) ([1]; 20 μg/ml) | Lactic Acid Accumulation (μ mol/ml) ([1]; .313 μg/ml) | Lactic Acid Accumulation (μ mol/ml) ([1]; .625 μg/ml) | % Propionic Acid [2, 3] [%] | % Propionic Acid [2, 4] [%] | % Propionic Acid [2, 5] [%] | % Propionic Acid [2, 6] [%] | % Propionic Acid [2, 7] [%] | % Propionic Acid [2, 8] [%] | % Propionic Acid [2, 9] [%] | Lactic Acid Accumulation ([1]; 1.25 μg/ml) [µmol/mL] | Lactic Acid Accumulation ([1]; 2.5 μg/ml) [µmol/mL] | Lactic Acid Accumulation ([1]; 5 μg/ml) [µmol/mL] | Lactic Acid Accumulation ([1]; 10 μg/ml) [µmol/mL] | Lactic Acid Accumulation ([1]; 20 μg/ml) [µmol/mL] | Lactic Acid Accumulation ([1]; .31 μg/ml) [µmol/mL] | further results
1 | CCC(=O)OC(C(C)C(=O)O)C(C)C1OC2(CCC(C)(C3CCC(C)(C4OC(C5OC(O)(COC(=O)C6CCC6)C(C)CC5C)CC4C)O3)O2)CC(O)C1C (stereo not drawn) [Cyclobutylcarboxylate, laidlomycin cyclobutylcarboxylate] | 3.82 | 4.01 | 4.32 | 4.73 | 4.75 | 23.25 | 8.05 | 50.0 | 52.5 | 51.7 | 51.8 | 51.2 | 47.5 | 47.1 | – | – | – | – | – | – | –
2 | CCCCCCC(=O)OCC1(O)OC(C2CC(C)C(C3(C)CCC(C4(C)CCC5(CC(O)C(C)C(C(C)C(OC(=O)CC)C(C)C(=O)O)O5)O4)O3)O2)C(C)CC1C (stereo not drawn) [L. C7, laidlomycin heptanoate] | – | – | – | – | – | – | – | – | – | – | – | – | – | – | 1.90 | 1.32 | 1.16 | 1.46 | 1.94 | 38.37 | Lactic Acid Accumulation ([1]; .63 μg/ml): 14.12 µmol/mL; % Propionic Acid [2, 10]: 46.2%; % Propionic Acid [2, 11]: 46.9%; % Propionic Acid [2, 12]: 48.4%; % Propionic Acid [2, 13]: 48.1%; % Propionic Acid [2, 14]: 47.2%; % Propionic Acid [2, 15]: 41.4%; % Propionic Acid [2, 16]: 45.3%
3 | CCCCCCCCCC(=O)OCC1(O)OC(C2CC(C)C(C3(C)CCC(C4(C)CCC5(CC(O)C(C)C(C(C)C(OC(=O)CC)C(C)C(=O)O)O5)O4)O3)O2)C(C)CC1C (stereo not drawn) [L. C10, laidlomycin decanoate] | – | – | – | – | – | – | – | – | – | – | – | – | – | – | 0.84 | 1.20 | 0.94 | 0.94 | 0.96 | 36.86 | Lactic Acid Accumulation ([1]; .63 μg/ml): 30.78 µmol/mL; % Propionic Acid [2, 10]: 45.5%; % Propionic Acid [2, 11]: 47.1%; % Propionic Acid [2, 12]: 46.7%; % Propionic Acid [2, 13]: 46.6%; % Propionic Acid [2, 14]: 48.1%; % Propionic Acid [2, 15]: 39.9%; % Propionic Acid [2, 16]: 43.6%
4 | CCCCCCCCCCCCCCCCCC(=O)OCC1(O)OC(C2CC(C)C(C3(C)CCC(C4(C)CCC5(CC(O)C(C)C(C(C)C(OC(=O)CC)C(C)C(=O)O)O5)O4)O3)O2)C(C)CC1C (stereo not drawn) [L. C18, laidlomycin stearate] | 48.87 | 52.51 | 46.20 | 37.83 | 29.93 | 50.29 | 52.57 | 40.0 | 41.6 | 44.6 | 45.5 | 45.8 | 37.1 | 37.6 | – | – | – | – | – | – | –
5 | CCCCCC(=O)OCC1(O)OC(C2CC(C)C(C3(C)CCC(C4(C)CCC5(CC(O)C(C)C(C(C)C(OC(=O)CC)C(C)C(=O)O)O5)O4)O3)O2)C(C)CC1C (stereo not drawn) [L. C6, laidlomycin hexanoate] | – | – | – | – | – | – | – | – | – | – | – | – | – | – | – | – | – | – | – | – | activity at 1.25 µg/mL ([1]; 1.25 μg/ml): 18%; activity at 5 µg/mL ([1]; 5 μg/ml): 11%; activity at 20 µg/mL ([1]; 20 μg/ml): 14%; activity at 0.31 µg/mL ([1]; .31 μg/ml): 60%; % Propionic Acid [2, 17]: 37.1%; % Propionic Acid [2, 18]: 40.1%; % Propionic Acid [2, 19]: 41.7%; % Propionic Acid [2, 20]: 33.0%
6 | CCCCCCCC(=O)OCC1(O)OC(C2CC(C)C(C3(C)CCC(C4(C)CCC5(CC(O)C(C)C(C(C)C(OC(=O)CC)C(C)C(=O)O)O5)O4)O3)O2)C(C)CC1C (stereo not drawn) [L. C8, laidlomycin octanoate] | – | – | – | – | – | – | – | – | – | – | – | – | – | – | 1.21 | 1.31 | 1.27 | 1.39 | 2.14 | 41.96 | Lactic Acid Accumulation ([1]; .63 μg/ml): 9.41 µmol/mL; % Propionic Acid [2, 10]: 46.4%; % Propionic Acid [2, 11]: 47.3%; % Propionic Acid [2, 12]: 48.2%; % Propionic Acid [2, 13]: 47.5%; % Propionic Acid [2, 14]: 49.4%; % Propionic Acid [2, 15]: 42.7%; % Propionic Acid [2, 16]: 43.9%
7 | CCCCC(=O)OCC1(O)OC(C2CC(C)C(C3(C)CCC(C4(C)CCC5(CC(O)C(C)C(C(C)C(OC(=O)CC)C(C)C(=O)O)O5)O4)O3)O2)C(C)CC1C (stereo not drawn) [L. C5, laidlomycin pentanoate] | 4.67 | 3.75 | 4.04 | 4.63 | 5.13 | 24.62 | 11.91 | 48.7 | 50.9 | 49.9 | 51.6 | 51.1 | 45.9 | 48.1 | – | – | – | – | – | – | activity at 1.25 µg/mL ([1]; 1.25 μg/ml): 54%; activity at 5 µg/mL ([1]; 5 μg/ml): 13%; activity at 20 µg/mL ([1]; 20 μg/ml): 11%; activity at 0.31 µg/mL ([1]; .31 μg/ml): 109%; % Propionic Acid [2, 17]: 33.9%; % Propionic Acid [2, 18]: 36.1%; % Propionic Acid [2, 19]: 39.7%; % Propionic Acid [2, 20]: 30.6%
8 | CCC(=O)OC(C(C)C(=O)O)C(C)C1OC2(CCC(C)(C3CCC(C)(C4OC(C5OC(O)(COC(C)=O)C(C)CC5C)CC4C)O3)O2)CC(O)C1C (stereo not drawn) [L. C2] | 6.89 | 4.34 | 4.35 | 4.35 | 5.28 | 41.19 | 22.23 | 50.7 | 50.4 | 52.2 | 51.2 | 53.0 | 42.8 | 47.1 | – | – | – | – | – | – | –

Source: US4431665A, “Acylated laidlomycin derivatives” (priority 1980, dated 1984)
